Test results published in the RepoRT retention time repository.
Counter-ions that a name gives are not always drawn.

Experiment: RP, Phenomenex Kinetex C18, 100 × 2.1 mm, 1.7 µm, 40 °C, 0.5 mL/min, estimated dead time 0.44 min; A: water + 1 mM ammonium fluoride; B: acetonitrile; gradient (min/%B) 0/10 2/10 22/100 27/100 27.1/10
Settings: stereoisomer not certain

SMILES	LC retention time
C[C@H](CCC(=O)O)[C@H]1CC[C@H]2[C@@H]3CC[C@@H]4CC(=O)CC[C@]4(C)[C@H]3CC[C@]12C [3-Oxo-5beta-cholanoic Acid]	13.4 min
CC(CCCC(C)C1CCC2C3C(O)CC4=CC(=O)CCC4(C)C3CCC12C)C(=O)O (configuration not stated) [7-Hydroxy-3-oxo-Cholest-4-en-26-oic Acid]	12 min
CC(CCC(=O)O)C1CCC2C3C(O)CC4CC(O)CCC4(C)C3CC(=O)C12C (configuration not stated) [12-Ketochenodeoxycholic acid]	7.88 min
CC(CCCC(C)C1CCC2C3CCC4=CC(=O)C=CC4(C)C3CCC12C)C(=O)O [(25S)-d1,4-Dafachronic acid]	14.5 min
CC(CCCC(C)C1CCC2C3=CCC4CC(=O)C=CC4(C)C3CCC21C)C(=O)O [(25S)-d1,7-Dafachronic acid]	14.4 min
CC(CCCC(C)C1CCC2C3CCC4CC(=O)C=CC4(C)C3CCC12C)C(=O)O [(25S)-d1-Dafachronic acid]	15.9 min
CC(CCCC(C)C1CCC2=C3C=CC4=CC(=O)CCC4(C)C3CCC21C)C(=O)O [(25S)-d4,6,8(14)-Dafachronic acid]	14.3 min
CC(CCCC(C)C1CCC2=C3CCC4CC(=O)CCC4(C)C3CCC21C)C(=O)O [(25S)-d8(14)-Dafachronic acid]	15.9 min
CCCCCCCCCCCCCCCCCCCC(=O)O [Arachidic acid]	20.3 min
CCCCCCCCCC(=O)O [Decanoic acid]	10.3 min
CC(CCC(=O)O)C1CCC2C3C(=O)CC4CC(=O)CCC4(C)C3CC(=O)C12C (configuration not stated) [Dehydrocholic acid]	7.14 min
CC(CCC(=O)NCC(=O)O)C1CCC2C3C(O)CC4CC(O)CCC4(C)C3CC(O)C12C (configuration not stated) [Glycocholic acid]	6.87 min
CC(CCC(=O)NCC(=O)O)C1CCC2C3C(=O)CC4CC(=O)CCC4(C)C3CC(=O)C12C (configuration not stated) [Glycodehydrocholic acid]	5.21 min
CC(CCC(=O)NCC(=O)O)C1CCC2C3CCC4CC(O)CCC4(C)C3CC(O)C12C (configuration not stated) [Glycodeoxycholic acid]	7.98 min
CC(CCC(=O)NCC(=O)O)C1CCC2C3CC(O)C4CC(O)CCC4(C)C3CCC12C (configuration not stated) [Glycohyodeoxycholic Acid]	6.88 min
CC(CCC(=O)NCC(=O)O)C1CCC2C3CCC4CC(O)CCC4(C)C3CCC12C (configuration not stated) [Glycolithocholic Acid sodium salt]	9.22 min
CC(CCC(=O)O)C1CCC2C3CCC4CC(O)CCC4(C)C3CCC12C (configuration not stated) [Lithocholic acid]	13.1 min
CC(CC(=O)O)C1CCC2C3CCC4CC(O)CCC4(C)C3CC(O)C12C (configuration not stated) [Nor-Desoxycholic Acid]	9.58 min
CC(CCC(=O)O)C1CCC2C3C(=O)CC4CC(O)CCC4(C)C3CCC12C (configuration not stated) [Nutriacholic Acid]	9.67 min
CC(CCC(=O)NCCS(=O)(=O)O)C1CCC2C3C(O)CC4CC(O)CCC4(C)C3CC(O)C12C (configuration not stated) [Taurocholic acid]	6.97 min
CC(CCC(=O)NCCS(=O)(=O)O)C1CCC2C3CCC4CC(O)CCC4(C)C3CC(O)C12C (configuration not stated) [Taurodeoxycholic acid]	8.04 min
CC(CCC(=O)NCCS(=O)(=O)O)C1CCC2C3CCC4CC(O)CCC4(C)C3CCC12C (configuration not stated) [Taurolithocholic acid]	9.12 min
